Laboratory results reported in patent US12121530B2, “Composition and methods for treating articulating joint disorders with nucleoside reverse transcriptase inhibitors” (RHODE ISLAND HOSPITAL, priority 2018, dated 2024).
“Also recorded” adds a separate entry of the source. One block for each compound: values may come before it.

Legend:
[1] = test system: miR-365 Tg mice; assay: primary OA model: miR-365 Tg mice given oral 3TC for 4 months; assay type: in vivo, mouse; settings: for tibial subchondral BV/TV / connectivity density of subchondral bone / trabecular number of subchondral bone / trabecular separation of subchondral bone: microCT
[2] = test system: 129S6/SvEv mice; assay: DMM induced OA (PTOA) in 129S6/SvEv mice, oral 3TC or FTC; assay type: in vivo, mouse; settings: for Adamts5 mRNA in cartilage / Col10 (Col 10a1) mRNA in cartilage / Line-1 level in cartilage / Mmp13 mRNA in cartilage / miR-365 induction by DMM: DMM mice, qPCR, versus Saline; for body weights, drug versus control treatment groups: DMM or Sham mice, drug in water from 8 weeks old for 4 weeks; for DMM induced proteoglycan loss in surgical knees: histology, drug in water for 4 weeks; for DMM induced OA / cartilage joint degeneration (Safranin O, OARSI quantification): oral administration for 1 month from 2-month-old
From the text: 12956/SvEv strain male mice were purchased from Taconic (https://www.taconic.com/mouse-model/129s6) at their age of 7-week-old. At least 3-day (72-hrs) acclimation period must be given to mice before any further procedures occurred to them. All 12956/SvEv strain mice throughout the studies were male.
129S6/SvEv male mice were chosen for experimental subjects at their age of 8-week-old. To create mouse injury/trauma induced OA model, medial meniscus ligament was transected using a previously described method (Lohmander, L. S., et al. Am J Sports Med 35, 1756-1769 (2007)). Briefly, 8-week-old male mice were anesthetized using either intraperitoneal (IP) injection of Ketamine/Dexmedetomidine or isoflurane to carry out medial parapatellar arthrotomy. Transection was made with a stab knife (Sharpoint™, Cat. 72-1551). At Weeks 12, mice were euthanized and dissected for histological examination as well as cartilage RNA extraction. 12 mice were used for each group/time point.
Paraffin sections were de-paraffinized in 2 changes of xylene, 10 mins each, followed by re-hydration in 2 changes of 100% alcohol, 5 mins each; 2 changes of 95% alcohol, 5 mins each; 70% alcohol for 5 mins. Sections were then rinsed in running tap water for 2 mins before stained with 0.4% fast green solution (Sigma, Cat. F-7258, St. Louis, Mo. 63103 USA) for 2 mins however the latter timing must be empirically controlled to assure desired coloration. Stained sections were then quickly rinsed with 1% acetic acid solution (Sigma, Cat. 695092-500ML-GL, St. Louis, Mo. 63103 USA) for no more than 10-15 sec. 0.1% Safranin O Solution was used for staining proteoglycan however the actual timing must be carefully determined based on actual coloring condition, for maximally 10 mins. After Safranin O staining, sections were submerged in 2 changes of 95% alcohol, 2 mins each, 2 changes of 100% alcohol, 2 mins each for de-hydration. Lastly, sections were cleared in 2 changes of xylene, 2 mins each, and mounted using resinous mounting medium (ACRYMOUNT™, Cat. SL80-4, McKinney, Tex. 75069 USA).
To histologically evaluate OA severity, we quantified Safranin O stained knee sections according to OARSI semi-quantitative system as previously described^3.
(§1) Both miRNA and mRNA were extracted using miRNeasy Mini Kit (Qiagen®, Germantown, Md., USA) and reversely transcribed using miScriptIIRT Kit (Qiagen®, Germantown, Md., USA) according to manufacturer's instruction. qPCR was performed using SYBR Green PCR master mix (Qiagen®, Germantown, Md., USA) on a Bio-Rad CFX96 real-time PCR detection system (Bio-Rad®, Hercules, Calif., USA). Amplification conditions are as follows: 95° C. for 10 min, 40 cycles of 95° C. for 10″, 55° C. for 30″, and 72° C. for 30″. 18S ribosomal or GAPDH RNA was used as an internal control gene to normalize the mRNAs level. The ubiquitously expressed snRNA U6 was used as an endogenous control for miRNAs level. Primers were synthesized by Integrated DNA Technologies (http://www.idtdna.com). The primers for miR-365 were purchased from Qiagen. Fold changes of mRNA and miRNAs were calculated by the 2^^(ΔΔCt) method and normalized to 18S/GAPDH or U6 snRNA, respectively.

[3] = test system: human chondrocyte cell line-C28; assay: gene expression in human chondrocyte cell line C28 treated with 3TC; assay type: cell-based
Procedure: as §1, with “respectively. […]” for “respectively.”

[4] = test system: C28 transiently over-express miR-365; assay: C28 transiently over-expressing miR-365 treated with 3TC, RT-qPCR; assay type: cell-based, human
Procedure: Cells were seeded onto desired size plates to reach 70-90% confluence and transfected with miR-365 mimic or miRNA mimic negative control or miR-365 inhibitor or inhibitor negative control (Dharmacon®, Lafayette, Colo., USA). Lipofectamine 3000 (Invitrogen®, Waltham, Mass., USA) was used as transfection reagents. Medium is changed 24 hrs after transfection. 48 hrs post transfection, cells were lysated in either QIAzol for RNA purification and real-time PCR analysis or ice-cold lysis buffer containing protease inhibitor and phosphatase inhibitor for western blot analysis. MiR-365 mimic, miRNA mimic negative control, miR-365 inhibitor and inhibitor negative control were typically used at a final concentration of 25 nM unless otherwise stated.
as §1

[5] = miR-365 Tg mice, 3TC for 4 months, RT-qPCR
[6] = miR-365 Tg mice, 3TC for four months
[7] = human chondrocytes C28, RNA level, various dosages
[8] = human chondrocytes over-expressing miR-365, various concentrations

tibial subchondral BV/TV ([1]; Cre control mice, 3TC 4 months): did not alter
connectivity density of subchondral bone ([1]; Cre mice, 3TC 4 months): increased
trabecular number of subchondral bone ([1]; Cre mice, 3TC 4 months): increased
trabecular separation of subchondral bone ([1]; Cre mice, 3TC 4 months): decreased
subchondral BMD ([1]; miR-365 Tg mice, 3TC 4 months): without decreasing
connectivity density of subchondral bone ([1]; miR-365 Tg mice, 3TC 4 months): no effect
tibial subchondral BV/TV ([1]; miR-365 Tg mice, 3TC 4 months): did not alter
trabecular number of subchondral bone ([1]; miR-365 Tg mice, 3TC 4 months): no effect
trabecular separation of subchondral bone ([1]; miR-365 Tg mice, 3TC 4 months): no effect
Compound: Nc1ccn([C@@H]2CS[C@H](CO)O2)c(=O)n1 [3TC, lamivudine]
early onset of OA / OA pathogenesis (Safranin O staining, OARSI quantification) ([1]; 6-month-old miR-365 Tg mice, 3TC for 4 months): abolished; also recorded: prevented early onset of OA
Acan levels in articular cartilage [1, 5]: unchanged
Adamts5 expression in articular cartilage [1, 5]: significantly inhibited; also recorded: significantly suppressed
Alu expression in articular cartilage [1, 5]: significantly suppressed
Col10 (Col10a1) expression in articular cartilage [1, 5]: significantly inhibited; also recorded: significantly suppressed
Inf-α expression in articular cartilage [1, 5]: significantly inhibited
Line-1 (Line-1-ORF2) expression in articular cartilage [1, 5]: significantly inhibited; also recorded: abolished; also recorded: significantly suppressed
Sqstm1 expression in articular cartilage [1, 5]: inhibition was abolished; also recorded: significantly up-regulated
Zc3hav1 (Zac3hav1) expression in articular cartilage [1, 5]: inhibition was abolished; also recorded: significantly up-regulated
Dicer mRNA level in cartilage [1, 6]: inhibition was abolished
Prkdc mRNA level in cartilage [1, 6]: inhibition was abolished
miR-365 expression in articular cartilage ([1]; miR-365 Tg mice, oral 3TC for 4 months, RT-qPCR): abolished; also recorded: significantly suppressed
Ihh expression in vivo ([1]; mice treated with 3TC from 2-month old till 6-month old): suppresses only Line-1 but not Ihh
Adamts5 mRNA in cartilage [2]: significantly repressed
Col10 (Col 10a1) mRNA in cartilage [2]: significantly repressed
Line-1 level in cartilage [2]: inhibition
Mmp13 mRNA in cartilage [2]: significantly repressed
miR-365 induction by DMM [2]: significantly prohibit
body weights, drug versus control treatment groups [2]: No appreciable difference
DMM induced proteoglycan loss in surgical knees [2]: effectively prevent
DMM induced OA / cartilage joint degeneration (Safranin O, OARSI quantification) [2]: significantly prevented; also recorded: significantly inhibited
Acan expression [3, 7]: promotes; also recorded: stimulated
Adamts5 expression [3, 7]: inhibited
COL10 (COL10A1) expression [3, 7]: inhibited
IHH expression [3, 7]: inhibits
Line-1 expression [3, 7]: inhibited
MMP13 expression [3, 7]: inhibited
COL2A1 expression ([3]; human chondrocytes, RNA level): stimulated
ACAN suppression by miR-365 [4, 8]: rectifies
miR-365 induced up-regulation of ADAMTS5 [4, 8]: completely abolishes
miR-365 induced up-regulation of COL10 [4, 8]: completely abolishes
miR-365 induced up-regulation of IHH [4, 8]: completely abolishes
miR-365 induced up-regulation of LINE-1 [4, 8]: completely abolishes
effect of miR-365 on L1, ADAMTS5, IHH, COL10A1 and ACAN levels ([4]; miR-365 transfected human chondrocytes (FIG. 3O-3T)): abolished and in some cases even reversed

Compound: Nc1nc(=O)n([C@@H]2CS[C@H](CO)O2)cc1F [FTC, 2′,3′-dideoxy-5-fluoro-3′-thiacytidine]
Adamts5 mRNA in cartilage [2]: significantly repressed
Col10 (Col 10a1) mRNA in cartilage [2]: significantly repressed
Line-1 level in cartilage [2]: inhibition
Mmp13 mRNA in cartilage [2]: significantly repressed
miR-365 induction by DMM [2]: significantly prohibit
body weights, drug versus control treatment groups [2]: No appreciable difference
DMM induced proteoglycan loss in surgical knees [2]: effectively prevent
DMM induced OA / cartilage joint degeneration (Safranin O, OARSI quantification) [2]: significantly prevented; also recorded: significantly inhibited
